Data set [1] has as its system MB231, HT1080, MB231-4175. Description: Cell tests (toxicity/viability) for various cell types at 0-200 μM peptide after 60 min of incubation. In kind it is cell-based. To be noted: in general, toxicity depends on cell type; 60 min incubation; FIG. 5A. The procedure: As shown in FIG. 5A toxicity depends on the cell type, however in general cells are viable under 100 μM of peptide incubation (NapFFK(NBD)Yp). […] Thus, EV generation can be amplified as low as 5 μM of peptide incubation and shorter times to be effective.

The subject of data set [2] is MDA-MB231 breast cancer cells. Description: Cell death of the cells used for EV production at high peptide concentration. To be noted: the particular cells used for EV production. In kind it is cell-based. From the text: The NTA can also determine the average diameter of released EVs. While the increase of polymer concentration in parental cells increases the number of released EVs, the size of EVs is constant regardless of the polypeptide concentration in parental cells (FIG. 3B, FIG. 3C, FIG. 3D, FIG. 3E). The increased number of released EVs can also be confirmed by the increase of fluorescence intensity of collected EVs (FIG. 3F), measured by fluorescence spectrometer. […] In one embodiment, production is enhanced by at least 50% relative to the control. […] The particular cells used experienced cell death at concentrations above 500 μM of NapFFKYp-NBD. Alternative upper limits may be possible for other cell line and other polypeptide precursors.

The structures appear in SMILES notation. Non-standard residues stand in square brackets, D forms with d. Residues, ends and D or L forms follow the SMILES beside them. *: point of attachment. Acetyl(2-naphthyl) = O=C(Cc1ccc2ccccc2c1)*; pY = N[C@@H](Cc1ccc(OP(=O)(O)O)cc1)C(=O)O; NBD = O=[N+]([O-])c1ccc(*)c2nonc12

As for `O=C(Cc1ccc2ccccc2c1)N[C@@H](Cc1ccccc1)C(=O)N[C@@H](Cc1ccccc1)C(=O)N[C@@H](CCCCNc1ccc([N+](=O)[O-])c2nonc12)C(=O)N[C@@H](Cc1ccc(OP(=O)(O)O)cc1)C(=O)O` [NapFFK(NBD)Yp] ({Acetyl(2-naphthyl)}-FFK(NBD)[pY]-OH), in data set [1], the “peptide concentration under which cells are viable” value is recorded as “under 100 μM”. Also, the “concentration above which cells experienced cell death” value in data set [2] is recorded as “above 500 μM”.

The record behind these values is US12264352B2, “Method for enhancing extracellular vesicle production” (Research Foundation of the City University of New York, priority 2016, dated 2025).
